Measurements published in patent US20240199612A1, “IMIDAZOPYRIDINYL INHIBITORS OF PLASMA KALLIKREIN” (SHIRE HUMAN GENETIC THERAPIES, INC., priority 2021, published 2024).

target: human activated kallikrein enzyme (Homo sapiens, UniProt P03952); assay: Inhibition of human activated plasma kallikrein, fluorogenic peptide substrate (PFR-AMC) assay, 500 pM enzyme format; format: biochemical; details: format with 500 pM activated kallikrein, 300 uM PFR-AMC, 30 min preincubation, 10 min reaction, room temperature; read-out: Primary Dose Response Assay: Average EC50
Method: Inhibitory Activity of Exemplary Compounds against Plasma Kallikrein.
Compounds were evaluated for inhibition of the human activated kallikrein enzyme in two formats of an assay employing a fluorogenic peptide substrate. In one assay format, the concentrations of reagents were as follows: 20 mM Tris pH 7.5, 1 mM EDTA, 150 mM sodium chloride, 0.1% PEG-400, 0.1% Triton X-100, 500 pM activated kallikrein enzyme, 300 uM Pro-Phe-Arg-7-amido-4-methylcoumarin (PFR-AMC) substrate. Prior to reaction initiation with substrate, enzyme and inhibitors were preincubated for 30 min at room temperature. After initiation with substrate, reactions were incubated for 10 min at room temperature and fluorescence emission at 460 nm from 380 nm excitation measured with a microplate reader. In another assay format, the concentrations of reagents were as follows: 20 mM Tris pH 7.5, 1 mM EDTA, 150 mM sodium chloride, 0.1% PEG-400, 0.1% Triton X-100, 5 pM activated kallikrein enzyme, 300 uM PFR-AMC substrate. Prior to reaction initiation with substrate, enzyme and inhibitors were preincubated for 30 min at room temperature. After initiation with substrate, reactions were incubated for 18 hr at room temperature and fluorescence emission at 460 nm from 380 nm excitation measured with a microplate reader.

Chain of human activated kallikrein enzyme (P03952 391-638 limits assumed): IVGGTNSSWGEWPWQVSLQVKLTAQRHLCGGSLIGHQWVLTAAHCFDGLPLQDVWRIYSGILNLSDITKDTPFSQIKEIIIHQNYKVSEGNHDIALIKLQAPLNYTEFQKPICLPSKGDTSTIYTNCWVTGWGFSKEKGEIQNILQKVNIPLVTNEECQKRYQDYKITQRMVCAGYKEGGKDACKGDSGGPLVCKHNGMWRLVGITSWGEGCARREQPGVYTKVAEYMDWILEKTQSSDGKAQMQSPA
Chain of human activated kallikrein enzyme (P03952 20-390 partner limits assumed): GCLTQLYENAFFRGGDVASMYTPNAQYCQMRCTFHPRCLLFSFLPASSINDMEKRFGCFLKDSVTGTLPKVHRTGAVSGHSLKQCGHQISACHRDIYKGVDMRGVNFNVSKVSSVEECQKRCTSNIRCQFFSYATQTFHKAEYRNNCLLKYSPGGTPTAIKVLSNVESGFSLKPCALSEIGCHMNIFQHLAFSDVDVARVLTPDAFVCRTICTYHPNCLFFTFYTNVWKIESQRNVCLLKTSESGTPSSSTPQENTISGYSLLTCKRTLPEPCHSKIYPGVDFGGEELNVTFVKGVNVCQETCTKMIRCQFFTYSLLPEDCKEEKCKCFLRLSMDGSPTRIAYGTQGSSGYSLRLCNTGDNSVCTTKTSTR

| SMILES | EC50 [nM] |
| --- | --- |
| CC(OC(=O)Nc1cc(NCc2cn3cc(C4CC4)ccc3n2)ccn1)c1cccc(Cl)c1 (centres unmarked) [Compound I-15, 1-(3-chlorophenyl)ethyl (4-(((6-cyclopropylimidazo[1,2-a]pyridin-2-yl)methyl)amino)pyridin-2-yl)carbamate] | < 5 |
| O=C(Nc1cc(N2C[C@@H](O)C[C@@H]2c2cn3cc(C4CC4)ccc3n2)ncn1)OCc1cc(Cl)ccn1 [Compound I-28, (4-chloropyridin-2-yl)methyl (6-((2R,4S)-2-(6-cyclopropylimidazo[1,2-a]pyridin-2-yl)-4-hydroxypyrrolidin-1-yl)pyrimidin-4-yl)carbamate] | < 5 |
| O=C(Nc1cc(N2C[C@@H](O)C[C@@H]2c2cn3cc(C4CC4)ccc3n2)ncn1)N1CC(c2ccccc2)C1 [Compound I-31, N-(6-((2R,4S)-2-(6-cyclopropylimidazo[1,2-a]pyridin-2-yl)-4-hydroxypyrrolidin-1-yl)pyrimidin-4-yl)-3-phenylazetidine-1-carboxamide] | 500 to 9000 |
| O=C(Nc1cc2c(cn1)ncn2Cc1cn2cc(C3CC3)ccc2n1)OCc1cc(Cl)ccc1-n1cnnn1 [Compound I-23, 5-chloro-2-(1H-tetrazol-1-yl)benzyl (1-((6-cyclopropylimidazo[1,2-a]pyridin-2-yl)methyl)-1H-imidazo[4,5-c]pyridin-6-yl)carbamate] | < 5 |
| O=C(Nc1cc(NCc2cn3cc(C4CC4)ccc3n2)ccn1)OCc1cc(Cl)ccc1-n1cnnn1 [Compound I-11, 5-chloro-2-(1H-tetrazol-1-yl)benzyl (4-(((6-cyclopropylimidazo[1,2-a]pyridin-2-yl)methyl)amino)pyridin-2-yl)carbamate] | < 5 |
| O=C(Nc1nccc2nn(Cc3cn4cc(C5CC5)ccc4n3)cc12)OCc1cccc(Cl)c1 [Compound I-19] | 5 to 50 |
| O=C(Nc1cc2c(cn1)nnn2Cc1cn2cc(C3CC3)ccc2n1)OCc1cccc(Cl)c1 [Compound I-20, 3-chlorobenzyl (1-((6-cyclopropylimidazo[1,2-a]pyridin-2-yl)methyl)-1H-[1,2,3]triazolo[4,5-c]pyridin-6-yl)carbamate] | 50 to 500 |
| O=C(NCc1nccc(Cl)n1)Nc1cc(NCc2cn3cc(C4CC4)ccc3n2)ncn1 [Compound I-29, 1-((4-chloropyrimidin-2-yl)methyl)-3-(6-(((6-cyclopropylimidazo[1,2-a]pyridin-2-yl)methyl)amino)-pyrimidin-4-yl)urea] | 50 to 500 |
| C[C@@H](OC(=O)Nc1cc(NCc2cn3cc(C4CC4)ccc3n2)ncn1)c1cccc(Cl)c1 [Compound I-2, (R)-1-(3-chlorophenyl)ethyl (6-(((6-cyclopropylimidazo[1,2-a]pyridin-2-yl)methyl)amino)pyrimidin-4-yl)carbamate] | < 5 |
| CC(OC(=O)Nc1cc(NCc2cn3cc(C4CC4)ccc3n2)ncn1)c1cccc(Cl)c1F (centres unmarked) [Compound I-7, 1-(3-chloro-2-fluorophenyl)ethyl (6-(((6-cyclopropylimidazo[1,2-a]pyridin-2-yl)methyl)amino)pyrimidin-4-yl)carbamate] | 5 to 50 |
| CCC(OC(=O)Nc1cc(NCc2cn3cc(C4CC4)ccc3n2)ncn1)c1cccc(Cl)c1 (centres unmarked) [Compound I-6, 1-(3-chlorophenyl)propyl (6-(((6-cyclopropylimidazo[1,2-a]pyridin-2-yl)methyl)amino)pyrimidin-4-yl)carbamate] | 50 to 500 |
| O=C(NCc1cc(Cl)ccn1)Nc1cc(NCc2cn3cc(C4CC4)ccc3n2)ncn1 [Compound I-27, 1-((4-chloropyridin-2-yl)methyl)-3-(6-(((6-cyclopropylimidazo[1,2-a]pyridin-2-yl)methyl)amino)pyrimidin-4-yl)urea] | 50 to 500 |
| O=C(Nc1cc2c(cn1)ncn2Cc1cn2cc(C3CC3)ccc2n1)OCc1cccc(Cl)c1 [Compound I-16, 3-chlorobenzyl (1-((6-cyclopropylimidazo[1,2-a]pyridin-2-yl)methyl)-1H-imidazo[4,5-c]pyridin-6-yl)carbamate] | 50 to 500 |
| O=C(Nc1cc(N2C[C@@H](O)C[C@@H]2c2cn3cc(C4CC4)ccc3n2)ncn1)N1CC(c2ncccn2)C1 [Compound I-33, N-(6-((2R,4S)-2-(6-cyclopropylimidazo[1,2-a]pyridin-2-yl)-4-hydroxypyrrolidin-1-yl)pyrimidin-4-yl)-3-(pyrimidin-2-yl)azetidine-1-carboxamide] | 50 to 500 |
| O=C(Nc1nccc2nn(Cc3cn4cc(C5CC5)ccc4n3)cc12)OCc1cc(Cl)ccc1-n1cnnn1 [Compound I-22, 5-chloro-2-(1H-tetrazol-1-yl)benzyl (2-((6-cyclopropylimidazo[1,2-a]pyridin-2-yl)methyl)-2H-pyrazolo[4,3-c]pyridin-4-yl)carbamate] | < 5 |
| O=C(NCc1cccc(Cl)c1)Nc1cc(NCc2cn3cc(C4CC4)ccc3n2)ncn1 [Compound I-24, 1-(3-chlorobenzyl)-3-(6-(((6-cyclopropylimidazo[1,2-a]pyridin-2-yl)methyl)amino)pyrimidin-4-yl)urea] | 500 to 9000 |
| COc1cccc(COC(=O)Nc2cc(NCc3cn4cc(C5CC5)ccc4n3)ncn2)c1 [Compound I-4, 3-methoxybenzyl (6-(((6-cyclopropylimidazo[1,2-a]pyridin-2-yl)methyl)amino)pyrimidin-4-yl)carbamate] | 50 to 500 |
| O=C(Nc1cc(NCc2cn3cc(C4CC4)ccc3n2)ncn1)OCc1cccc(Cl)c1 [Compound I-1, 3-Chlorobenzyl (6-(((6-cyclopropylimidazo[1,2-a]pyridin-2-yl)methyl)amino)pyrimidin-4-yl)carbamate] | 5 to 50 |
| O=C(Nc1cn2c(Cc3cn4cc(C5CC5)ccc4n3)nnc2cn1)OCc1cccc(Cl)c1 [Compound I-14, 3-chlorobenzyl (3-((6-cyclopropylimidazo[1,2-a]pyridin-2-yl)methyl)-[1,2,4]triazolo[4,3-a]pyrazin-6-yl)carbamate] | 50 to 500 |
| COc1ccnc(CNC(=O)Nc2cc(NCc3cn4cc(C5CC5)ccc4n3)ncn2)n1 [Compound I-30, 1-(6-(((6-cyclopropylimidazo[1,2-a]pyridin-2-yl)methyl)amino)pyrimidin-4-yl)-3-((4-methoxypyrimidin-2-yl)methyl)urea] | 500 to 9000 |
| O=C(Nc1cc(NCc2cn3cc(C4CC4)ccc3n2)ncn1)NC1Cc2ccc(Cl)cc21 (centres unmarked) [Compound I-32, 1-(4-chlorobicyclo[4.2.0]octa-1(6),2,4-trien-7-yl)-3-(6-(((6-cyclopropylimidazo[1,2-a]pyridin-2-yl)methyl)amino)pyrimidin-4-yl)urea] | 500 to 9000 |
| CC(OC(=O)Nc1cc2c(cn1)ncn2Cc1cn2cc(C3CC3)ccc2n1)c1cccc(Cl)c1 (centres unmarked) [Compound I-17, 1-(3-chlorophenyl)ethyl (1-((6-cyclopropylimidazo[1,2-a]pyridin-2-yl)methyl)-1H-imidazo[4,5-c]pyridin-6-yl)carbamate] | 50 to 500 |
| C[C@H](OC(=O)Nc1cc(NCc2cn3cc(C4CC4)ccc3n2)ncn1)c1cccc(Cl)c1 [Compound I-3, (S)-1-(3-chlorophenyl)ethyl (6-(((6-cyclopropylimidazo[1,2-a]pyridin-2-yl)methyl)amino)pyrimidin-4-yl)carbamate] | 500 to 9000 |
| O=C(Nc1cc(NCc2cn3cc(C4CC4)ccc3n2)ncn1)N1CC(c2cccc(Cl)c2)C1 [Compound I-25, 3-(3-chlorophenyl)-N-(6-(((6-cyclopropylimidazo[1,2-a]pyridin-2-yl)methyl)amino)pyrimidin-4-yl)azetidine-1-carboxamide] | > 9000 |
| Cc1ccnc(COC(=O)Nc2cc(NCc3cn4cc(C5CC5)ccc4n3)ncn2)n1 [Compound I-34, (4-methylpyrimidin-2-yl)methyl (6-(((6-cyclopropylimidazo[1,2-a]pyridin-2-yl)methyl)amino)pyrimidin-4-yl)carbamate] | 5 to 50 |
| O=C(Nc1cc(NCc2cn3cc(C4CC4)ccc3n2)ncn1)OCC(O)c1cccc(Cl)c1 (centres unmarked) [Compound I-9, 2-(3-chlorophenyl)-2-hydroxyethyl (6-(((6-cyclopropylimidazo[1,2-a]pyridin-2-yl)methyl)amino)pyrimidin-4-yl)carbamate] | 5 to 50 |

target: T1, plasma kallikrein (Homo sapiens, UniProt P03952); assay: Neat human plasma assay (contact pathway-activated plasma, FXIIa, PFR-AMC substrate); format: biochemical; details: sodium citrate human plasma, 78% final plasma, 10 nM human FXIIa, 100 μM PFR-AMC, room temperature
T1 construct: from tissue; host or cells: sodium citrate collected human plasma (78% final)
Method: Neat Human and Rat Plasma Assay
To analyze inhibition of plasma kallikrein in an ex vivo setting, the potency of compounds was measure in contact pathway-activated plasma assays. In a fluorogenic peptide substrate assay, test compounds dissolved in DMSO were added to sodium citrate collected human or rat plasma in a 96-well microplate. Alternatively, citrated plasma was collected from rats administered the compounds orally or by IV. 10 nM of human FXIIa (Enzyme Research Laboratories) diluted in PKa buffer (20 mM Tris-HCl, pH 7.5, 150 mM NaCl, 1 mM EDTA, 0.1% PEG-8000, and 0.1% Triton X-100) was added to the plasma, followed by the 100 μM of the profluorescent, synthetic plasma kallikrein substrate PFR-AMC (also diluted in PKa buffer). Final plasma concentration in the reaction was 78%. Fluorescence was immediately monitored by excitation/emission wavelengths of 360 nm/480 nm respectively over a period of 5 minutes in a microplate reader. The resulting linear increase in fluorescence emission (reflecting PKa proteolysis of PFR-AMC substrate) was fit to extract a proteolytic rate (fluorescent units over time), and this rate was subsequently plotted against compound inhibitor concentration. Resulting plots were fit to a standard 4-parameter IC50/IC90 equation to determine min/max values, IC50/90, and slope. All experimental steps were performed at room temperature.

T1 sequence (P03952 391-638 limits assumed): as the sequence (P03952 391-638 limits assumed) above
T1 sequence (P03952 20-390 partner limits assumed): as the sequence (P03952 20-390 partner limits assumed) above

| SMILES | IC90 [nM] |
| --- | --- |
| CC(OC(=O)Nc1cc(NCc2cn3cc(C4CC4)ccc3n2)ccn1)c1cccc(Cl)c1 (centres unmarked) [Compound I-15, 1-(3-chlorophenyl)ethyl (4-(((6-cyclopropylimidazo[1,2-a]pyridin-2-yl)methyl)amino)pyridin-2-yl)carbamate] | 2500 to 7500 |
| O=C(Nc1cc(N2C[C@@H](O)C[C@@H]2c2cn3cc(C4CC4)ccc3n2)ncn1)OCc1cc(Cl)ccn1 [Compound I-28, (4-chloropyridin-2-yl)methyl (6-((2R,4S)-2-(6-cyclopropylimidazo[1,2-a]pyridin-2-yl)-4-hydroxypyrrolidin-1-yl)pyrimidin-4-yl)carbamate] | ≤ 2500 |
| O=C(Nc1cc(NCc2cn3cc(C4CC4)ccc3n2)ccn1)OCc1cc(Cl)ccc1-n1cnnn1 [Compound I-11, 5-chloro-2-(1H-tetrazol-1-yl)benzyl (4-(((6-cyclopropylimidazo[1,2-a]pyridin-2-yl)methyl)amino)pyridin-2-yl)carbamate] | 2500 to 7500 |
